Data as given in ChEMBL document CHEMBL1145584, “Cycloalkyl-substituted aryl chloroethylureas inhibiting cell cycle progression in G0/G1 phase and thioredoxin-1 nuclear translocation” (2008).
Calls of active or inactive are those of the source. The rule behind the calls is not given here.

Key:
[1] = test system: M21; test: Antiproliferative activity against human M21 cells; format: functional
[2] = test system: MCF7; test: Cell cycle arrest in human MCF7 cells assessed as increase in G2/M phase accumulation at 25 uM after 16 hrs by FACS analysis; format: functional
[3] = test system: MCF7; test: Antiproliferative activity against human MCF7 cells; format: functional
[4] = test system: MCF7; test: Cell cycle arrest in human MCF7 cells assessed as increase in G0/G1 phase accumulation at 25 uM after 16 hrs by FACS analysis; format: functional
[5] = test system: MCF7; test: Cell cycle arrest in human MCF7 cells assessed as increase in S phase accumulation at 25 uM after 16 hrs by FACS analysis; format: functional
[6] = test system: HT-29; test: Antiproliferative activity against human HT29 cells; format: functional
[7] = test system: MCF7; test: Cell cycle arrest in human MCF7 cells assessed as increase in G2/M phase accumulation at 50 uM after 16 hrs by FACS analysis; format: functional
[8] = test system: M21; test: Effect on thioredoxin-1 nuclear translocation in human M21 cells at 50 uM by immunocytochemistry analysis; format: functional, cell-based
[9] = test system: MCF7; test: Cell cycle arrest in human MCF7 cells assessed as increase in G0/G1 phase accumulation at 50 uM after 16 hrs by FACS analysis; format: functional
[10] = test system: MCF7; test: Cell cycle arrest in human MCF7 cells assessed as increase in S phase accumulation at 50 uM after 16 hrs by FACS analysis; format: functional
[11] = test system: MCF7; test: Cell cycle arrest in human MCF7 cells assessed as increase in G2/M phase accumulation at 2 times GI50 after 25 hrs by flow cytometry; format: functional, cell-based
[12] = test system: MCF7; test: Cell cycle arrest in human MCF7 cells assessed as increase in G2/M phase accumulation at 4 times GI50 after 25 hrs by flow cytometry; format: functional, cell-based
[13] = test system: MCF7; test: Cell cycle arrest in human MCF7 cells assessed as increase in G2/M phase accumulation at 1 time GI50 after 25 hrs by flow cytometry; format: functional, cell-based
[14] = test system: M21; test: Effect on thioredoxin-1 nuclear translocation in human M21 cells at 30 uM after 24 hrs by Western blot analysis; format: functional, cell-based
[15] = test system: M21; test: Effect on thioredoxin-1 nuclear translocation in human M21 cells at 25 uM after 24 hrs by Western blot analysis; format: functional, cell-based
[16] = test system: M21; test: Antiproliferative activity against human M21 cells at 100 uM; format: functional, cell-based
[17] = test system: HT-29; test: Antiproliferative activity against human HT29 cells at 100 uM; format: functional, cell-based
[18] = test system: MCF7; test: Antiproliferative activity against human MCF7 cells at 100 uM; format: functional, cell-based
[19] = test system: M21; test: Effect on thioredoxin-1 nuclear translocation in human M21 cells at 25 uM by immunocytochemistry analysis; format: functional, cell-based
[20] = test system: MCF7; test: Cell cycle arrest in human MCF7 cells assessed as increase in G0/G1 phase accumulation at 0.1 uM after 16 hrs by FACS analysis; format: functional
[21] = test system: MCF7; test: Cell cycle arrest in human MCF7 cells assessed as increase in S phase accumulation at 0.1 uM after 16 hrs by FACS analysis; format: functional
[22] = test system: MCF7; test: Cell cycle arrest in human MCF7 cells assessed as increase in G2/M phase accumulation at 0.1 uM after 16 hrs by FACS analysis; format: functional
[23] = test system: M21; test: Effect on thioredoxin-1 nuclear translocation in human M21 cells at 50 uM after 24 hrs by Western blot analysis; format: functional, cell-based
[24] = test system: MCF7; test: Cell cycle arrest in human MCF7 cells assessed as increase in G0/G1 phase accumulation at 1 time GI50 after 25 hrs by flow cytometry; format: functional, cell-based
[25] = test system: MCF7; test: Cell cycle arrest in human MCF7 cells assessed as increase in G0/G1 phase accumulation at 2 times GI50 after 25 hrs by flow cytometry; format: functional, cell-based
[26] = test system: MCF7; test: Cell cycle arrest in human MCF7 cells assessed as increase in G0/G1 phase accumulation at 4 times GI50 after 25 hrs by flow cytometry; format: functional, cell-based

Structure (SMILES) | GI50 [1] [µM] | GI50 [3] [µM] | GI50 [6] [µM] | Activity [7] [%] | Activity [8] | Activity [9] [%] | Activity [10] [%] | other results
CCC(C)SSc1ncc[nH]1 (stereo not drawn) [PX-12] | 8.3 | 8.3 | 25 | – | – | – | – | Activity [2]: 58%; Activity [4]: 29%; Activity [5]: 13%
O=C(NCCCl)Nc1ccc(OC2CCCCCC2)cc1 | 18 | 19 | 12.5 | 6 | Active | 75 | 19 | –
O=C(NCCCl)Nc1ccc2c(c1)CCC2 | 8 | 14.1 | 3.6 | – | – | – | – | Activity [11]: Active; Activity [2]: 40%; Activity [12]: Active; Activity [4]: 31%; Activity [5]: 29%; Activity [13]: Active
O=C(NCCCl)Nc1ccc(OC2CCCC2)cc1 | 38 | 49 | 31 | 9 | Active | 72 | 19 | –
CC(C)(C)c1ccc(NC(=O)NCCCl)cc1 | – | – | – | – | – | – | – | Activity [14]: inactive; Activity [2]: 58%; Activity [4]: 17%; Activity [15]: inactive; Activity [5]: 24%
CCNC(=O)Nc1ccc(C2CCCCC2)cc1 | – | – | – | 22 | – | 55 | 23 | Activity [16]: inactive; Activity [17]: inactive; Activity [18]: inactive
O=C(NCCCl)Nc1ccc(I)cc1 | – | – | – | – | – | – | – | Activity [2]: 42%; Activity [4]: 25%; Activity [5]: 33%; Activity [19]: Active
O=C(NCCCl)Nc1cccc(OC2CCCC2)c1 | 22 | 35 | 9.9 | 12 | Active | 64 | 24 | –
O=C(NCCCl)Nc1ccc2ccccc2c1 | 4.1 | 5.6 | 1.9 | 45 | Active | 17 | 38 | –
O=C(NCCCl)Nc1ccc(OC2CCCCC2)cc1 | 36 | 45 | 23 | 14 | Active | 57 | 29 | –
O=C(NCCCl)Nc1cccc(OC2CCCCCC2)c1 | 20 | 21 | 10.7 | 6 | Active | 72 | 22 | –
O=C(NCCCl)Nc1cccc(OC2CCCCC2)c1 | 20 | 25 | 7.9 | 8 | Active | 59 | 33 | –
CC(=O)O[C@H]1C(=O)[C@@]2(C)[C@H]([C@H](OC(=O)c3ccccc3)[C@]3(O)C[C@H](OC(=O)[C@H](O)[C@@H](NC(=O)c4ccccc4)c4ccccc4)C(C)=C1C3(C)C)[C@]1(OC(C)=O)CO[C@@H]1C[C@@H]2O [PACLITAXEL] | – | – | – | – | – | – | – | Activity [20]: 9%; Activity [21]: 11%; Activity [22]: 80%
O=C(NCCCl)Nc1ccc(Oc2ccccc2)cc1 | 5.2 | 9.1 | 2.4 | – | – | – | – | Activity [2]: 65%; Activity [4]: 15%; Activity [5]: 20%; Activity [19]: inactive
O=C(NCCCl)Nc1ccc(C2CCCCC2)cc1 | 21 | 21 | 12.6 | 13 | Active | 71 | 16 | Activity [23]: Active; Activity [14]: Active; Activity [24]: Active; Activity [25]: Active; Activity [26]: Active
O=C(NCCCl)NC1c2ccccc2-c2ccccc21 | 27 | 22 | 19 | 8 | Active | 63 | 29 | –
O=C(NCCCl)Nc1cccc(Oc2ccccc2)c1 | 16 | 24 | 5.6 | 30 | inactive | 44 | 26 | –
COc1cc2c(c(OC)c1OC)-c1ccc(OC)c(=O)cc1[C@@H](NC(C)=O)CC2 [COLCHICINE] | – | – | – | – | – | – | – | Activity [20]: 19%; Activity [21]: 19%; Activity [22]: 62%
